Experimental data as given in US7741327B2 (Hoffmann-La Roche Inc., priority 2008, dated 2010).

molecular target: T1, Recombinant human liver GK1 (GST-GK) (Homo sapiens, UniProt P35557); assay: In vitro glucokinase activity (G6PDH-coupled NADH assay); assay type: biochemical; settings: 30° C., 5 mM D-glucose, 10% DMSO
T1 construct: made in house; host or cells: E. coli
T1 sequence (P35557 1-466 isoform P35557-2): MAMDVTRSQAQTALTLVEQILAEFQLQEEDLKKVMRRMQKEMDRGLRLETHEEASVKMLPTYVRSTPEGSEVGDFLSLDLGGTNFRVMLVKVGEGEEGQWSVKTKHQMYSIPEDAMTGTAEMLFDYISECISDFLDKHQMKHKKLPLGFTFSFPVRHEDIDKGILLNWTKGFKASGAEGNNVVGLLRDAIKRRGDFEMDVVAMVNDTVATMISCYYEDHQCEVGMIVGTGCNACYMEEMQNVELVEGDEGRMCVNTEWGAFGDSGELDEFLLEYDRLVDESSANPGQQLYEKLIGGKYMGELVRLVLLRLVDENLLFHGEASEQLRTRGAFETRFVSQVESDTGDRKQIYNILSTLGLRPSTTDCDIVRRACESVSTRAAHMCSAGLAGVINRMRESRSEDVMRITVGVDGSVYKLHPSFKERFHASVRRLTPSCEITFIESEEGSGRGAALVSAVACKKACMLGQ
Method in brief: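 Activation measured as the rate of OD340 rise from G6PDH-coupled NADH production, relative to 10% DMSO control, reported as SC1.5 (concentration for 50% activity increase). Conditions: 30° C, pH 7.1 Hepes, 5 mM glucose, 1 mM ATP, purified recombinant GST-human GK1, compound preincubated 10 min before enzyme addition.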

Going from `CCOc1ccccc1OC1=CC(=O)N([C@@H](CC(C)C)C(=O)Nc2ccn(C)n2)C1.Cl` [Example 82, (S)-2-[4-(2-Ethoxy-phenoxy)-2-oxo-2,5-dihydro-pyrrol-1-yl]-4-methyl-pentanoic acid (1-methyl-1H-pyrazol-3-yl)-amide Hydrochloride] to `CCOc1cccc(OC2=CC(=O)N([C@@H](CC(C)C)C(=O)Nc3ccn(C[C@@H](O)CO)n3)C2)c1Cl` [Example 161, (S)-2-[4-(2-chloro-3-ethoxy-phenoxy)-2-oxo-2,5-dihydro-pyrrol-1-yl]-4-methyl-pentanoic acid [1-((R)-2,3-dihydroxy-propyl)-1H-pyrazol-3-yl]-amide], the “SC1.5 (concentration of activator that produced a 50% increase in the activity of GK)” value falls from 2.591 µM to 0.042 µM (62-fold).

`CCOc1cccc(OC2=CC(=O)N([C@@H](CC(C)C)C(=O)Nc3ccn(C[C@@H](O)CO)n3)C2)c1` [Example 162, (S)-2-[4-(3-Ethoxy-phenoxy)-2-oxo-2,5-dihydro-pyrrol-1-yl]-4-methyl-pentanoic acid [1-((R)-2,3-dihydroxy-propyl)-1H-pyrazol-3-yl]-amide] and `COc1cccc(OC2=CC(=O)N([C@@H](CC(C)C)C(=O)Nc3ccn(C[C@@H](O)CO)n3)C2)c1` [Example 160, (S)-2-[4-(3-Methoxy-phenoxy)-2-oxo-2,5-dihydro-pyrrol-1-yl]-4-methyl-pentanoic acid [1-((R)-2,3-dihydroxy-propyl)-1H-pyrazol-3-yl]-amide] are within 1.5-fold of each other in “SC1.5 (concentration of activator that produced a 50% increase in the activity of GK)” value: 0.307 µM for the first, 0.306 µM for the second.

`CC(C)C[C@@H](C(=O)Nc1ccn(C[C@@H](O)CO)n1)N1CC(Oc2cccc(N3CCCC3)c2F)=CC1=O` [Example 142, (S)-2-[4-(2-Fluoro-3-pyrrolidin-1-yl-phenoxy)-2-oxo-2,5-dihydro-pyrrol-1-yl]-4-methyl-pentanoic acid [1-((R)-2,3-dihydroxy-propyl)-1H-pyrazol-3-yl]-amide] and `CC(C)C[C@@H](C(=O)Nc1ccn(C[C@@H](O)CO)n1)N1CC(Oc2cccc3c2CCCC3)=CC1=O` [Example 98, (S)-4-Methyl-2-[2-oxo-4-(5,6,7,8-tetrahydro-naphthalen-1-yloxy)-2,5-dihydro-pyrrol-1-yl]-pentanoic acid [1-((R)-2,3-dihydroxy-propyl)-1H-pyrazol-3-yl]-amide] are within 1.5-fold of each other in “SC1.5 (concentration of activator that produced a 50% increase in the activity of GK)” value: 0.234 µM for the first, 0.212 µM for the second.

Compared with `CC(C)C[C@@H](C(=O)Nc1ccn(C[C@@H]2COC(C)(C)O2)n1)N1CC(Oc2cccc(N(C)C)c2F)=CC1=O` [Example 139, (S)-2-[4-(3-Dimethylamino-2-fluoro-phenoxy)-2-oxo-2,5-dihydro-pyrrol-1-yl]-4-methyl-pentanoic acid [1-((R)-2,2-dimethyl-[1,3]dioxolan-4-yl-methyl)-1H-pyrazol-3-yl]-amide], `CC(C)C[C@@H](C(=O)Nc1ccn(C[C@@H]2COC(C)(C)O2)n1)N1CC(Oc2cccc(Br)c2F)=CC1=O` [Example 128, (S)-2-[4-(3-Bromo-2-fluoro-phenoxy)-2-oxo-2,5-dihydro-pyrrol-1-yl]-4-methyl-pentanoic acid [1-((R)-2,2-dimethyl-[1,3]dioxolan-4-yl-methyl)-1H-pyrazol-3-yl]-amide] is 2.3-fold lower in “SC1.5 (concentration of activator that produced a 50% increase in the activity of GK)” value: 0.796 µM for the first, 0.351 µM for the second.

`Cl.O=C(Nc1cnccn1)[C@H](CC1CCCCC1)N1CC(Oc2c(F)cccc2Cl)=CC1=O` [Example 71, (S)-2-[4-(2-Chloro-6-fluoro-phenoxy)-2-oxo-2,5-dihydro-pyrrol-1-yl]-3-cyclohexyl-N-pyrazin-2-yl-propionamide Hydrochloride] and `Cn1ccc(NC(=O)[C@H](CC2CCCCC2)N2CC(Oc3c(F)cccc3Cl)=CC2=O)n1` [Example 68, (S)-2-[4-(2-Chloro-6-fluoro-phenoxy)-2-oxo-2,5-dihydro-pyrrol-1-yl]-3-cyclohexyl-N-(1-methyl-1H-pyrazol-3-yl)-propionamide] are within 1.5-fold of each other in “SC1.5 (concentration of activator that produced a 50% increase in the activity of GK)” value: 0.058 µM for the first, 0.055 µM for the second.

Going from `CC(C)NC1=CC(=O)N([C@@H](CC2CCCCC2)C(=O)Nc2ccn(CC(C)(C)O)n2)C1` [Example 232, (S)-3-cyclohexyl-N-[1-(2-hydroxy-2-methyl-propyl)-1H-pyrazol-3-yl]-2-(4-isopropylamino-2-oxo-2,5-dihydro-pyrrol-1-yl)-propionamide] to `CC(C)(O)Cn1ccc(NC(=O)[C@H](CC2CCCCC2)N2CC(Oc3ccc(Cl)cc3Cl)=CC2=O)n1` [Example 202, (S)-3-cyclohexyl-2-[4-(2,4-dichloro-phenoxy)-2-oxo-2,5-dihydro-pyrrol-1-yl]-N-[1-(2-hydroxy-2-methyl-propyl)-1H-pyrazol-3-yl]-propionamide], the “SC1.5 (concentration of activator that produced a 50% increase in the activity of GK)” value falls from 12.232 µM to 0.012 µM (1000-fold).

`CCOc1ccc(F)c(OC2=CC(=O)N(C(CC3CCOCC3)C(=O)Nc3ccn(CC(C)(C)O)n3)C2)c1F` (stereo not drawn) [Example 256, 2-[4-(3-Ethoxy-2,6-difluoro-phenoxy)-2-oxo-2,5-dihydro-pyrrol-1-yl]-N-[1-(2-hydroxy-2-methyl-propyl)-1H-pyrazol-3-yl]-3-(tetrahydro-pyran-4-yl)-propionamide] and `CC(C)(O)Cn1ccc(NC(=O)C(C[C@H]2C[C@H](C)C2)N2CC(Oc3ccccc3Cl)=CC2=O)n1` (stereo partly drawn) [Example 214, 2-[4-(2-Chloro-phenoxy)-2-oxo-2,5-dihydro-pyrrol-1-yl]-N-[1-(2-hydroxy-2-methyl-propyl)-1H-pyrazol-3-yl]-3-(trans-3-methyl-cyclobutyl)-propionamide] are within 1.5-fold of each other in “SC1.5 (concentration of activator that produced a 50% increase in the activity of GK)” value: 0.044 µM for the first, 0.043 µM for the second.

`COC1=CC(=O)N([C@@H](CC2CCCC2)C(=O)Nc2ncc(Cl)s2)C1` [Example 2, (S)-N-(5-Chloro-thiazol-2-yl)-3-cyclopentyl-2-(4-methoxy-2-oxo-2,5-dihydro-pyrrol-1-yl)-propionamide] and `COC1=CC(=O)N([C@@H](CC2CCCC2)C(=O)Nc2ncc(F)s2)C1` [Example 8, (S)-3-Cyclopentyl-N-(5-fluoro-thiazol-2-yl)-2-(4-methoxy-2-oxo-2,5-dihydro-pyrrol-1-yl)-propionamide] are within 1.5-fold of each other in “SC1.5 (concentration of activator that produced a 50% increase in the activity of GK)” value: 1.672 µM for the first, 1.365 µM for the second.

Compared with `CC[C@@H](C)CC(C(=O)Nc1ccn(C[C@@H](O)CO)n1)N1CC(Oc2ccccc2Cl)=CC1=O` (stereo partly drawn) [Example 253, (R)-2-[4-(2-Chloro-phenoxy)-2-oxo-2,5-dihydro-pyrrol-1-yl]-4-methyl-hexanoic acid [1-((R)-2,3-dihydroxy-propyl)-1H-pyrazol-3-yl]-amide], `O=C(Nc1ccn(C[C@@H](O)CO)n1)[C@H](Cc1ccccc1)N1CC(Oc2ccccc2Cl)=CC1=O` [Example 181, (S)-2-[4-(2-chloro-phenoxy)-2-oxo-2,5-dihydro-pyrrol-1-yl]-N-[1-((R)-2,3-dihydroxy-propyl)-1H-pyrazol-3-yl]-3-phenyl-propionamide] is 9.4-fold higher in “SC1.5 (concentration of activator that produced a 50% increase in the activity of GK)” value: 0.113 µM for the first, 1.064 µM for the second.

First: COc1cccc(OC2=CC(=O)N([C@@H](CC3CCCC3)C(=O)Nc3ccn(C[C@@H](O)CO)n3)C2)c1Cl [Example 55, (S)-2-[4-(2-Chloro-3-methoxy-phenoxy)-2-oxo-2,5-dihydro-pyrrol-1-yl]-3-cyclopentyl-N-[1-((R)-2,3-dihydroxy-propyl)-1H-pyrazol-3-yl]-propionamide]
Second: Cl.Cn1ccc(NC(=O)[C@H](CC2CCCCC2)N2CC(Oc3ccccc3C(F)(F)F)=CC2=O)n1 [Example 90, (S)-3-Cyclohexyl-N-(1-methyl-1H-pyrazol-3-yl)-2-[2-oxo-4-(2-trifluoromethyl-phenoxy)-2,5-dihydro-pyrrol-1-yl]-propionamide Hydrochloride]
The “SC1.5 (concentration of activator that produced a 50% increase in the activity of GK)” value of the first is 13-fold lower: 0.007 µM for the first, 0.088 µM for the second.

First: CC(C)C[C@@H](C(=O)Nc1ccn(C[C@@H](O)CO)n1)N1CC(Oc2ccc3c(c2)OCCO3)=CC1=O [Example 168, (S)-2-[4-(2,3-dihydro-benzo[1,4]dioxin-6-yloxy)-2-oxo-2,5-dihydro-pyrrol-1-yl]-4-methyl-pentanoic acid [1-((R)-2,3-dihydroxy-propyl)-1H-pyrazol-3-yl]-amide]
Second: COC1=CC(=O)N([C@@H](CC2CCCC2)C(=O)Nc2ccn(C)n2)C1 [Example 6, (S)-3-Cyclopentyl-2-(4-methoxy-2-oxo-2,5-dihydro-pyrrol-1-yl)-N-(1-methyl-1H-pyrazol-3-yl)-propionamide]
The “SC1.5 (concentration of activator that produced a 50% increase in the activity of GK)” value of the first is 29-fold lower: 0.437 µM for the first, 12.645 µM for the second.

With `CC(C)(O)Cn1ccc(NC(=O)C(Cc2c(Cl)cccc2Cl)N2CC(Oc3c(F)cccc3F)=CC2=O)n1` (stereo not drawn) [Example 225, 3-(2,6-Dichloro-phenyl)-2-[4-(2,6-difluoro-phenoxy)-2-oxo-2,5-dihydro-pyrrol-1-yl]-N-[1-(2-hydroxy-2-methyl-propyl)-1H-pyrazol-3-yl]-propionamide] the “SC1.5 (concentration of activator that produced a 50% increase in the activity of GK)” value was over 30 µM.

same assay, conditions: at 30 μM test compound

In the case of `CC(C)(O)Cn1ccc(NC(=O)C(Cc2c(Cl)cccc2Cl)N2CC(Oc3c(F)cccc3F)=CC2=O)n1` (stereo not drawn) [Example 225, 3-(2,6-Dichloro-phenyl)-2-[4-(2,6-difluoro-phenoxy)-2-oxo-2,5-dihydro-pyrrol-1-yl]-N-[1-(2-hydroxy-2-methyl-propyl)-1H-pyrazol-3-yl]-propionamide], the “fold act. @ 30 μM” value is reported as 1.4 fold.
